Source: ChEMBL document CHEMBL5252532, “Oxindole: A chemical prism carrying plethora of therapeutic benefits” (Eur J Med Chem, 2016)
Converted amounts (≈) assume the structure as drawn.

Legend:
[1] = tested on: Escherichia coli; assay: Antibacterial activity against Escherichia coli assessed as bacterial growth inhibition; type: functional
[2] = tested on: Streptococcus pyogenes; assay: Antibacterial activity against Streptococcus pyogenes assessed as bacterial growth inhibition; type: functional
[3] = tested on: Pseudomonas aeruginosa; assay: Antibacterial activity against Pseudomonas aeruginosa assessed as bacterial growth inhibition; type: functional
[4] = tested on: Staphylococcus aureus; assay: Antibacterial activity against Staphylococcus aureus assessed as bacterial growth inhibition; type: functional
[5] = target: High affinity nerve growth factor receptor (Homo sapiens, UniProt P04629); assay: Inhibition of TrkA (unknown origin)
[6] = tested on: SK-N-BE(2); assay: Anticancer activity against human SKNBE2 cells assessed as cell growth inhibition; type: functional, cell-based
[7] = tested on: GAMG; assay: Anticancer activity against human GAMG cells assessed as cell growth inhibition; type: functional, cell-based
[8] = tested on: A549; assay: Anticancer activity against human A549 cells assessed as cell growth inhibition; type: functional, cell-based
[9] = tested on: RKO; assay: Anticancer activity against human RKO cells assessed as cell growth inhibition by MTT assay; type: functional, cell-based
[10] = tested on: MDA-MB-435; assay: Anticancer activity against human MDA-MB-435 cells assessed as cell growth inhibition by MTT assay; type: functional, cell-based
[11] = tested on: Mycobacterium tuberculosis; assay: Antitubercular activity against Mycobacterium tuberculosis H37Rv strain assessed as bacterial growth inhibition; type: functional
[12] = tested on: T-24; assay: Anticancer activity against human T24 cells assessed as cell growth inhibition incubated for 24 hrs by MTT assay; type: functional, cell-based; details: T-24, 24 h
[13] = tested on: MGC-803; assay: Anticancer activity against human MGC-803 cells assessed as cell growth inhibition incubated for 24 hrs by MTT assay; type: functional, cell-based; details: MGC-803, 24 h
[14] = target: Vascular endothelial growth factor receptor 1 (Homo sapiens, UniProt P17948); assay: Inhibition of VEGFR1 (unknown origin) in presence of ATP
[15] = target: Aldo-keto reductase family 1 member B1 (Homo sapiens, UniProt P15121); assay: Inhibition of AR (unknown origin) assessed as glycation activity
[16] = target: Cyclin-dependent kinase 2 (Homo sapiens, UniProt P24941); assay: Inhibition of human CDK2 […]-Pro-Met-Ser-Pro-Lys-LysLys-Ala-CONH2 peptide as substrate incubated for 30 to 60 mins by scintillation counter analysis
[17] = target: Cyclin-dependent kinase 1 (Homo sapiens, UniProt P06493); assay: Inhibition of human CDK1 using Biotinaminohexyl-Ala-Arg-Arg-Pro-Met-Ser-Pro-Lys-LysLys-Ala-CONH2 peptide as substrate incubated for 20 to 30 mins by scintillation counter analysis
[18] = tested on: MCF7; assay: Growth inhibition of human MCF7 cells; type: functional
[19] = organism: Homo sapiens; assay: Inhibition of ERK (unknown origin) at 100 uM by western blot assay relative to control

Chain of High affinity nerve growth factor receptor (P04629 whole entry): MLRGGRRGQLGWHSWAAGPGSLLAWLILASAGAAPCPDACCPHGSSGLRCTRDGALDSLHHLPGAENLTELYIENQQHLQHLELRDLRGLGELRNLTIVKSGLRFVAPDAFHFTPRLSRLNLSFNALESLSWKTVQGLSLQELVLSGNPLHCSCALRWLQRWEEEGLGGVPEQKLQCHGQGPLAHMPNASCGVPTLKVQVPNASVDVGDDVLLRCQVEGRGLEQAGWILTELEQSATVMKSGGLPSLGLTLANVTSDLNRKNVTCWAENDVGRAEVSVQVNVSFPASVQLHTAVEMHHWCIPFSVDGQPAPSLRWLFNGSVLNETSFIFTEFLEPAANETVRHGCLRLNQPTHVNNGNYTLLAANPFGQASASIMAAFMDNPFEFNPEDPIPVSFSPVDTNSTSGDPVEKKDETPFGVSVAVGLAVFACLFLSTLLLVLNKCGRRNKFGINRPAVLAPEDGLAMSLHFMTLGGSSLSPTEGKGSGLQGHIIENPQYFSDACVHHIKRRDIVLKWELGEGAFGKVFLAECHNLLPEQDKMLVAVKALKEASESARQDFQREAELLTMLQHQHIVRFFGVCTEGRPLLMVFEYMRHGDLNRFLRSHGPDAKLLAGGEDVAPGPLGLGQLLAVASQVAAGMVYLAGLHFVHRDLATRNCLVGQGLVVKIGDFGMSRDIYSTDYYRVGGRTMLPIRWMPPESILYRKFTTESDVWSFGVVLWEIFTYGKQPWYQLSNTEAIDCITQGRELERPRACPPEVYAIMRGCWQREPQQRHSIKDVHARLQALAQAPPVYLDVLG
Chain of Cyclin-dependent kinase 1 (P06493 whole entry): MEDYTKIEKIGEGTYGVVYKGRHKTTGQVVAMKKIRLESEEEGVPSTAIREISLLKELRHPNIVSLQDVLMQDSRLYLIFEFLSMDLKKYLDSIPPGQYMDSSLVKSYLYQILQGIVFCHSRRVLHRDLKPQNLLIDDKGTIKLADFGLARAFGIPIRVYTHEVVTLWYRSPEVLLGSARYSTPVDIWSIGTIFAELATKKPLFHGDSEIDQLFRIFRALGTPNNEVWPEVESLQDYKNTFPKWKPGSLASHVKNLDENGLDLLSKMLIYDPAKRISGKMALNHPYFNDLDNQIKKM
Chain of Vascular endothelial growth factor receptor 1 (P17948 whole entry): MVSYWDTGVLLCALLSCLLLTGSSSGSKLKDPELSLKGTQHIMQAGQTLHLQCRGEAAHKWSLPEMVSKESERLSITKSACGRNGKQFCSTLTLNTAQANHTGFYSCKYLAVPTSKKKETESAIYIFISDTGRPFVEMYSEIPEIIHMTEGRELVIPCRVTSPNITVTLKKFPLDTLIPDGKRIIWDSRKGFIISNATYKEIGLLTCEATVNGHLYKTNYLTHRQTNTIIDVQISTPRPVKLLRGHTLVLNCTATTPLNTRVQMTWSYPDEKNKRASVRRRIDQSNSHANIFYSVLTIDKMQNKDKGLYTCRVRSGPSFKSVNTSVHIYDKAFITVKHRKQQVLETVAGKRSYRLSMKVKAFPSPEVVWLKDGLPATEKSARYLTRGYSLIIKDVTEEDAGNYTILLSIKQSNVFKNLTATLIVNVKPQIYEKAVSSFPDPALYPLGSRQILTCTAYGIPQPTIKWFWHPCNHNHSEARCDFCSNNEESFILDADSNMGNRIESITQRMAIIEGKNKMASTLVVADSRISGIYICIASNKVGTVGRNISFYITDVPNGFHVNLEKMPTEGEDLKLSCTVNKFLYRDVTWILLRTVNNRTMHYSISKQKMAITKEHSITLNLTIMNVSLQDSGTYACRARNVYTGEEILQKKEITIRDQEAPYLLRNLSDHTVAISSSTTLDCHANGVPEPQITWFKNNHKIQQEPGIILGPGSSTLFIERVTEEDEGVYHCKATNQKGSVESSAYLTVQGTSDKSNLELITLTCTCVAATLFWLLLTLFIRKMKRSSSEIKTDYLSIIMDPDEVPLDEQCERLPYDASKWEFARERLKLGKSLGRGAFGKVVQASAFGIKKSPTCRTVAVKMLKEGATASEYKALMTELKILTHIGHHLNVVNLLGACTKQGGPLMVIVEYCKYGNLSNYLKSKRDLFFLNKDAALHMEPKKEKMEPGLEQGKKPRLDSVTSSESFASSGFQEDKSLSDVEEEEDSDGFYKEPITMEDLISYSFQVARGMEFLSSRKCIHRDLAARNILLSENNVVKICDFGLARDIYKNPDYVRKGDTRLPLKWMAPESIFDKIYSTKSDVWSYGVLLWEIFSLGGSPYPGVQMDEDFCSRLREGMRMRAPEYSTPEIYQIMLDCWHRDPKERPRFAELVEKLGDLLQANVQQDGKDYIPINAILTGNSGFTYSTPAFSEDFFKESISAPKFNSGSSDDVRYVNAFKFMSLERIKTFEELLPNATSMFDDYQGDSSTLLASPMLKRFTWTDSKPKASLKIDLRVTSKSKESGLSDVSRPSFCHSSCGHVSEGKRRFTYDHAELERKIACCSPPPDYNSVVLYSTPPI

Which results are given for Cc1ccc(S(=O)(=O)N2CCN(c3ccc(/C=C4/C(=O)Nc5ccccc54)cc3)CC2)cc1?
MIC ([1]; Escherichia coli, read-out: MIC): 25 µg/mL (≈ 54.4 µM); MIC [2]: 25 µg/mL (≈ 54.4 µM); MIC [3]: 25 µg/mL (≈ 54.4 µM); MIC ([4]; Staphylococcus aureus, read-out: MIC): 25 µg/mL (≈ 54.4 µM)

Which IC50 [5] does the source give for O=C1Nc2ccccc2/C1=C/Nc1ccc(-n2nccn2)cc1 here?
Its IC50 is 0.008 µM.

Which IC50 [6] does the source give for COC(=O)C1=CO[C@@H](C)[C@H]2CN3CC[C@]4(C(=O)Nc5ccccc54)[C@@H]3C[C@H]12 here?
Its IC50 is 20 µM.

What about the IC50 [7] of the same molecule?
Its IC50 is 12.3 µM.

With O=C1Nc2ncccc2C12CCN(Cc1ccccc1OC(F)(F)F)CC2 as the molecule, how does the IC50 [8] read?
The IC50 was 0.05 µM.

For COc1cc[nH]c1/C=C1\C(=O)Nc2ccc([N+](=O)[O-])c(N3CC[C@@H](N)C3)c21, which IC50 [9] is on record?
The IC50 was < 10 µM.

And the IC50 [10]?
The IC50 was < 10 µM.

For Cc1ccc(CN2C(=O)/C(=N/NC(=O)c3ccccc3)c3cc(C)ccc32)cc1, which MIC [11] is on record?
Its MIC is 25 µg/mL (≈ 65.2 µM).

With CC(=O)O[C@H]1CC[C@@]2(C)C(=CC[C@@H]3[C@@H]2CC[C@]2(C)C4=C(C#N)C(=N)OC5(C(=O)N(Cc6c(F)cccc6F)c6ccccc65)C4C[C@@H]32)C1 (stereo partly specified) as the molecule, how does the IC50 [12] read?
Its IC50 is 4.43 µM.

What about the IC50 [13] of the same molecule?
The IC50 was 8.45 µM.

With Cc1cc(CCC(=O)O)c(/C=C2\C(=O)Nc3ccccc32)[nH]1 as the molecule, how does the IC50 [14] read?
Its IC50 is 0.096 µM.

For CC(=O)O[C@H]1CC[C@@]2(C)C(=CC[C@@H]3[C@@H]2CC[C@]2(C)C4=C(C#N)C(=N)OC5(C(=O)N(Cc6ccc(C)cc6)c6ccccc65)C4C[C@@H]32)C1 (stereo partly specified), which IC50 [12] is on record?
The IC50 was 4.43 µM.

And the IC50 [13]?
Its IC50 is 8.45 µM.

O=C1Nc2ccccc2/C1=C/c1cccc(Cl)c1 was tested. Which IC50 [15] did it give?
Its IC50 is 150 µM.

How did the IC50 [16] turn out when O=C1Nc2ccc3ncsc3c2/C1=C/Nc1ccc(S(=O)(=O)NCCOCCO)cc1 was run?
The IC50 was 0.012 µM.

And the IC50 [17]?
Its IC50 is 0.00054 µM.

With CC1(C)CC(=O)C2=C(C1)NC(=S)NC21C(=O)Nc2ccc(Br)cc21 (stereo unspecified) as the molecule, how does the MIC [1] read?
The MIC was 500 µg.

And the MIC [4]?
The MIC was 500 µg.

Which GI50 [18] does the source give for CN1C(=O)O[C@]2(C[C@H]1c1ccccc1)C(=O)Nc1ccccc12 here?
The GI50 was 2.6 µM.

How did the IC50 [15] turn out when Cc1ccc(O)c(/C=C2\C(=O)Nc3ccccc32)c1 was run?
The IC50 was 195 µM.

For O=C1Nc2ccccc2C1=O, which inhibition [19] is on record?
The inhibition was 35%.

O=C1Cc2cc(O)ccc2N1 was tested. Which inhibition [19] did it give?
The inhibition was 35%.

How did the IC50 [15] turn out when C[C@@H]1O[C@@H](OC[C@H]2O[C@@H](Oc3c(-c4ccc(O)c(O)c4)oc4cc(O)cc(O)c4c3=O)[C@H](O)[C@@H](O)[C@@H]2O)[C@H](O)[C@H](O)[C@H]1O [RUTIN] was run?
The IC50 was 295 µM.
